Key:
[1] = among substituted benzoic amides of WO 2006/099762; cited from earlier work
[2] = Tasting in the applicant's own investigations; type: in vivo; details: for Umami-properties: in vivo
[3] = Panel tasting in 0.5% American beef extract / beef broth as base (FIG. 1, scores 0 to 6); type: in vivo
From the text: In spider diagram attached as FIG. 1, American beef broth is exemplarily compared as a base, with firstly such a base with an addition of 5 ppm of mixture of cyclopropanecarboxylic acid-((1S,2S,5R)-2-isopropyl-5-methyl-cyclohexyl)-amide (11) and Cyclopropanecarboxylic acid-((1R,2R,5S)-2-isopropyl-5-methyl-cyclohexyl)-amide (12) (mixing ratio of 1:1) and secondly with such a base with an addition of 0.05 wt.-% of MSG.
With the aid of tasting by a panel of trained subjects, the taste of a 0.5% American beef extract as base (light grey line) was compared with the taste of firstly, such a base, to which 5 ppm of mixture consisting of cyclopropanecarboxylic acid-((1S,2S,5R)-2-isopropyl-5-methyl-cyclohexyl)amide (11) and cyclopropanecarboxylic acid-((1R,2R,5S)-2-isopropyl-5-methyl-cyclohexyl)amide (12) was added (solid line), and secondly such a base, to which 0.05 wt.-% of MSG was added (broken line).
The subjects rated the strength of the stated trend of taste by ranking of scores on a scale from 0 (no corresponding taste) to 6 (very strong corresponding taste). The average values of respective scores are illustrated.

[4] = as given in US 2004/0202760 and US 2004/0202619; cited from earlier work

COC(=O)c1ccc(C(=O)NC2CC(C)CCC2C(C)C)cc1 (centres unmarked)
cooling effect [1]: strongest ascertained cooling effect

CC(C)[C@@H]1CC[C@@H](C)C[C@@H]1NC(=O)C1CC1 [(11), Cyclopropanecarboxylic acid-((1S,2S,5R)-2-isopropyl-5-methyl-cyclohexyl)amide]
Umami-properties [2]: interesting and strong Umami-properties

CC(C)[C@H]1CC[C@H](C)C[C@H]1NC(=O)C1CC1 [(12), Cyclopropanecarboxylic acid-((1R,2R,5S)-2-isopropyl-5-methyl-cyclohexyl)amide]
Umami-properties [2]: interesting and strong Umami-properties

O=C(NC1CCCCC1)C1CC1 [Cyclopropanecarboxylic acid cyclohexyl amide]
creating or enhancing of an Umami taste impression [3]: no creating or enhancing of an Umami taste impression could be verified | taste rating ([2]; tasting in own investigations): taste-neutral

CC/C=C\CC/C=C/C(=O)NC1CC1 [N-cyclopropyl-E2,Z6-nonadiene amide]
sensory impression [4]: effect similar to MSG

CCCCC/C=C\CC/C=C/C(=O)NCC [N-ethyl-E2,Z6-dodecadiene amide]
sensory impression [4]: effect similar to MSG

CC/C=C\CC/C=C/C(=O)NCC [N-ethyl-E2,Z6-nonadiene amide]
sensory impression [4]: effect similar to MSG
